Read-outs that look alike come from different tables or passages of the source.
How the values were obtained:
[1] = system: triple-positive breast cancer cell ZR-75-1; assay: Fluorescence microscopy (Hoechst 33258), ZR-75-1 cells; type: cell-based, Human; conditions: 24 h compound treatment followed by 2 min light irradiation (1.92 J cm^−2)
Protocol: Fluorescence microscopy was used to visualize and examine the cell morphological features before and after photosensitization. Specific cellular characteristics can identify the mechanism of cell death which can be exploited to understand therapeutic outcome. […] After aspirating the old growth media, 1 mL of the compound or photosensitizer (with varying concentrations) in fresh pre-warmed media at 37° C. was added to each well. […] Images were recorded using fluorescence microscopy (DAPI for Hoechst 350-390 nm excitation and 460-490 nm emission filters) using an upright fluorescence microscope with Retiga imaging 2000R (Nikon Optiphot-2, 20× and 40×) and an image processing Nikon NIS-Elements V4.0 Qimaging software.

[2] = system: triple-positive breast cancer cell ZR-75-1; type: cell-based; design: % Cell Survival: concentration or dose not given beside the values; conditions: for % Cell Survival: ZR-75-1, 24 h compound treatment followed by 2 min light irradiation (1.92 J cm^−2); for dark toxicity ranking / dark toxicity: unirradiated TPBC cells
Protocol: (§1) Human mammary epithelial carcinoma cell lines purchased from the American Type Culture Collection ZR-75-1 (ATCC CRL-1500) and BT-549 (ATCC HTB-122) were cultured according to ATCC protocol. Briefly, ZR-75-1 cells were grown in RPMI 1640 medium (ATCC), while BT-549 were grown in RPMI 1640 containing 0.023 IU/mL insulin. Both were supplemented with 10% fetal bovine serum (FBS). Cells were grown to 80-90% confluence in 75-cm^2 culture flasks (Corning) for 4-5 days in a humidified incubator (Fisher Scientific Isotemp) with 5% CO2 at 37° C. During the incubation period, growth media was changed once with fresh pre-warmed media (pH 7.2). To harvest the cells, old growth media was aspirated out and 3 mL 0.25% trypsin solution (Thermo Sci Hyclone) were added. The cells were incubated for 5 min and the cell pellet after centrifugation was resuspended in 3 mL media, broken up gently, then 1 ml of suspended cells was transferred into a new T75 cell culture flask containing pre-warmed media (20 mL) for further culturing.
(§2) Cells were grown to confluence in a 96-well plate (5×10^4 cells/well) and treated for 24 h with compounds or photosensitizers of varying concentrations ranging from 5 nM to 50 μM) in growth media from a stock solution of 10 mM in DMSO (dimethyl sulfoxide, Fisher). After 24 h treatment, old growth media containing the PS or compounds were aspirated out and replaced with fresh media. Plates were then positioned below a non-coherent LumaCare LC-122 650 nm light source for 1, 2, and 5 min at an energy fluence rate of 16 mW/cm^2 (measured using a Newport optical power meter Model 840). Unirradiated cells served as control samples. The following day, cells were washed with pre-warmed PBS, and MTT (3-[4,5-dimethyl-thiazol-2-yl]-2.5-diphenyltetrazolium bromide, Sigma, 0.3 mg/mL) in PBS was added to each well. Samples were allowed to incubate for additional 2 h, after which dark blue crystals formed. DMSO was added to each well and plates were shaken at room temperature for 1 h to dissolve the purplish-blue formazan crystals. Absorbance values at 490 nm were measured on a microplate reader (BioRad 550). Cell survival was calculated based on the absorbance of the untreated cells alone (as control) and were directly proportional to the number of viable cells in culture. Results were reported as average of triplicate measurements.

[3] = system: triple-negative breast cancer cell BT549; type: cell-based; design: % Cell Survival: concentration or dose not given beside the values; conditions: for % Cell Survival: BT549, 24 h compound treatment followed by 2 min light irradiation (1.92 J cm^−2); for dark toxicity / dark toxicity ranking: absence of light
Protocol: as §1, §2

[4] = system: Mouse colon carcinoma cell line CT26.WT; assay: Cell survival (MTT) assay, CT26 colon carcinoma cells; type: cell-based
Protocol: Mouse colon carcinoma cell line CT26. WT was purchased from the American Type Culture Collection (ATCC CRL-2638). […] During the incubation period, growth media was changed once with fresh pre-warmed medium (pH 7.2). To harvest the cells, old growth media was aspirated and 5 mL 0.25% trypsin solution (Thermo Sci Hyclone, Waltham, Mass., USA) were added. The cells were incubated for 10 min and gently scraped to detach cells from the flask walls. Clumped cells were broken up gently and 1 mL of the trypsinized cell homogenate suspension was transferred into a new T75 cell culture flask containing pre-warmed media (20 mL) for further culturing. […] After 24 h treatment, old growth media containing the PS or compounds were aspirated out and replaced with fresh media. Plates were then positioned below a non-coherent LumaCare LC-122 650 nm light source for 1, 2, and 5 min at an energy fluence rate of 16 mW/cm^2 (measured using a Newport optical power meter Model 840). Unirradiated cells served as control samples. […] Samples were allowed to incubate for additional 2 h, after which dark blue crystals formed. DMSO was added to each well and plates were shaken at room temperature for 1 h to dissolve the purplish-blue formazan crystals. Absorbance values at 490 nm were measured on a microplate reader (BioRad 550). Cell survival was calculated based on the absorbance of the untreated cells alone (as control) and were directly proportional to the number of viable cells in culture. Results were reported as average of triplicate measurements.

Compound | Morphological Features [1] | % Cell Survival [2] [%] | dark toxicity ranking [2] | % Cell Survival [3] [%] | dark toxicity ([3]; TNBC cells, 24-hr treatment) | dark toxicity ranking ([3]; TNBC cells) | dark toxicity [2] | also measured
13^1-Hexamethylenediaminyl-bexarotenylchlorin e6 dimethyl ester indium (III) chloride [Example 6] | Clustered cells, intact nuclei | 80 | Example 3>Example 5>MePheo>Example 6 | 33 | exhibited dark toxicity | Example 3 (most phototoxic in the dark)>Example 1>Example 6>Example 5 | – | –
C=Cc1c(C)c2cc3nc(c(CC(=O)OC)c4[nH]c(cc5nc(cc1[nH]2)C(C)=C5CC)c(C)c4C(=O)NCCCCCCNC(=O)CCCC[C@@H]1SC[C@@H]2NC(=O)N[C@@H]21)[C@@H](CCC(=O)OC)[C@@H]3C [Example 1, 13^1-Hexamethylenediaminyl-biotinylchlorin e6 dimethyl ester] | – | 4.2 | – | 8.1 | exhibited in vitro dark cytotoxicity at 5 μM concentration | Example 3 (most phototoxic in the dark)>Example 1>Example 6>Example 5 | no toxicity | increase of cell inhibition upon irradiation compared to methyl pheophorbide (MePheo) ([4]; colon cancer cells, upon irradiation): approximately 19%; dark toxicity ([2]; listed as Example l): no dark toxicity; phototoxicity at nanomolar concentrations ([3]; TNBC cells, 100 nM to 200 nM, light activation): showed a light-activation dose response; cell inhibition ([3]; TNBC cells, 100 nM, 5 min light dose (4.8 J cm^−2)): 60%; reduction in cell proliferation ([3]; TNBC cells, 200 nM, lowest light dose used): ~50%; cell survival in the absence of light ([3]; TNBC cells, 5 μM, 24-hr treatment, no light): 86%
13^1-Hexamethylenediaminyl-bexarotenylchlorin e6 dimethyl ester [Example 2] | – | 4.6 | – | 7.7 | – | – | – | –
Zn(II)-13^1-Hexamethylenediaminyl-bexarotenylchlorin e6 dimethyl ester [Example 4] | Clustered cells, intact nuclei | 105 | – | 108 | no significant dark response | – | no toxicity | –
O=C(O)CCCC[C@@H]1SC[C@@H]2NC(=O)N[C@@H]21 [Biotine, biotin, reference compound] | – | 99 | – | 116 | – | – | – | toxicity to colon cancer cells (cell viability assay) ([4]; in the dark and in the presence of light, concentration up to 50 μM): not toxic
Zn(II)-13^1-Hexamethylenediaminyl-Biotinylchlorin e6 dimethyl ester [Example 3] | – | 15.4 | Example 3>Example 5>MePheo>Example 6 | 16 | exhibited dark toxicity | Example 3 (most phototoxic in the dark)>Example 1>Example 6>Example 5 | most phototoxic in the dark | –
C=Cc1c(C)c2cc3nc(c4c5[nH]c(cc6nc(cc1[nH]2)C(C)=C6CC)c(C)c5C(=O)[C@@H]4C(=O)OC)[C@@H](CCC(=O)OC)[C@@H]3C [Methyl pheophorbide a, reference compound] | – | 3.4 | Example 3>Example 5>MePheo>Example 6 | 21 | no significant dark response | – | – | –
C=C(c1ccc(C(=O)O)cc1)c1cc2c(cc1C)C(C)(C)CCC2(C)C [Bexarotene, reference compound] | – | 110 | – | 111 | – | – | – | –
13^1-Hexamethylenediaminyl-Biotinylchlorin e6 dimethyl ester indium (III) chloride [Example 5] | Cell debris apparent | 12.9 | Example 3>Example 5>MePheo>Example 6 | 56 | exhibited dark toxicity | Example 3 (most phototoxic in the dark)>Example 1>Example 6>Example 5 | – | decrease in cell proliferation of colon cancer cells ([4]; irradiation for 2 min, compared to MePheo, Example 1 or Example 3): 30%

Reference: patent US11191835B2, “Chlorin-vitamin conjugates” (priority 2018, dated 2021)
